# Laboratory results as given in ChEMBL document CHEMBL4483862, “Open-source discovery of chemical leads for next-generation chemoprotective antimalarials” (2018).
# Tested on: Plasmodium berghei
# Test: Luciferase/luciferin-expressing antifolate-resistant parasites were used to infect a culture of HepG2 cells that were pre-incubated with compounds. Infected hepatocytes emit light due to the luciferase reaction. Assay results are presented as the percent inhibition of light emission compared to control. […]
# Assay type: functional
# Conditions: sporozoite; for IC90: read-out: LUCIFERASE INFECTION ASSAY - IC90
Structure (SMILES),IC90 [µM],other results
Cc1ccsc1/C=C/c1ccc2cccc(O)c2n1,> 10,"IC50 (PBLUC_HILL_SLOPE 14, PBLUC_R_SQUARED 0.406, read-out: LUCIFERASE INFECTION ASSAY - IC50): 9.41 µM"
C/C(=N\Nc1nc2ccccc2[nH]1)c1ccc(Cl)s1,> 10,"IC50 (PBLUC_HILL_SLOPE 13.6, PBLUC_R_SQUARED 0.0664, read-out: LUCIFERASE INFECTION ASSAY - IC50): 9.32 µM"
CN(Cc1ccccc1NC(=O)/C=C/c1cnn(-c2ccccc2)c1)C1CCCCC1,> 10,"IC50 (PBLUC_HILL_SLOPE 13.5, PBLUC_R_SQUARED 0.731, read-out: LUCIFERASE INFECTION ASSAY - IC50): 8.68 µM"
OCc1ccccc1-c1cn2c(-c3ccc(Cl)cc3)cnc2cn1,3.81,"IC50 (PBLUC_HILL_SLOPE 13.7, PBLUC_R_SQUARED 0.696, read-out: LUCIFERASE INFECTION ASSAY - IC50): 3.25 µM"
O=C1C=CC(=O)N1Cc1ccc2c(c1)OCO2,13.4,"IC50 (PBLUC_HILL_SLOPE 13.6, PBLUC_R_SQUARED 0.619, read-out: LUCIFERASE INFECTION ASSAY - IC50): 11.4 µM"
Cc1cc2nc3n(c2cc1C)C1(Nc2ccccc2-3)C(=O)Nc2ccccc21 (configuration not stated),3.6,"IC50 (PBLUC_HILL_SLOPE 13.5, PBLUC_R_SQUARED 0.192, read-out: LUCIFERASE INFECTION ASSAY - IC50): 3.06 µM"
CCn1c(SCc2csc(N(C(C)=O)c3cccc(C)c3)n2)nc2ccccc2c1=O,> 10,"IC50 (PBLUC_HILL_SLOPE 13.6, PBLUC_R_SQUARED 0.153, read-out: LUCIFERASE INFECTION ASSAY - IC50): > 10 µM"
Cn1cnnc1Sc1ccc(/C=C/c2nc3ccccc3[nH]2)cc1[N+](=O)[O-],3.92,"IC50 (PBLUC_HILL_SLOPE 13.5, PBLUC_R_SQUARED 0.706, read-out: LUCIFERASE INFECTION ASSAY - IC50): 3.33 µM"
CNC(=O)c1ccc(CN(Cc2ccc(SC)cc2)Cc2ccco2)cc1,0.736,"IC50 (PBLUC_HILL_SLOPE 13.4, PBLUC_R_SQUARED 0.501, read-out: LUCIFERASE INFECTION ASSAY - IC50): 0.624 µM"
c1coc(CC2CCCC2Nc2c3ccccc3nc3ccccc23)c1 (configuration not stated),1.22,"IC50 (PBLUC_HILL_SLOPE 13.4, PBLUC_R_SQUARED 0.585, read-out: LUCIFERASE INFECTION ASSAY - IC50): 1.04 µM"
Cc1sc2ncnc(Sc3nnc(-c4cccs4)n3-c3ccccc3)c2c1C,3.96,"IC50 (PBLUC_HILL_SLOPE 13.8, PBLUC_R_SQUARED 0.706, read-out: LUCIFERASE INFECTION ASSAY - IC50): 3.37 µM"
O=C(Cc1ccc(-c2ccccc2)cc1)Nc1nc(-c2ccccn2)cs1,> 10,"IC50 (PBLUC_HILL_SLOPE 13.5, PBLUC_R_SQUARED 0.18, read-out: LUCIFERASE INFECTION ASSAY - IC50): 9.2 µM"
O=C(CN1CCn2cccc2C1c1ccccc1)N1CCc2sccc2C1 (configuration not stated),4.34,"IC50 (PBLUC_HILL_SLOPE 14, PBLUC_R_SQUARED 0.298, read-out: LUCIFERASE INFECTION ASSAY - IC50): 3.71 µM"
CCC(C)c1ccc(-n2c(=O)c3ccccc3n3c(SCCc4ccncc4)nnc23)cc1 (configuration not stated),9.16,"IC50 (PBLUC_HILL_SLOPE 14.1, 1.41, PBLUC_R_SQUARED 0.703, 0.467, read-out: LUCIFERASE INFECTION ASSAY - IC50): 5.1 µM"
Cc1ccc(C(C)CCN2CCC3(CC2)C(=O)N(CCCc2ccncc2)C(=O)N3CCC(C)C)o1 (configuration not stated),> 6.67,"IC50 (PBLUC_HILL_SLOPE 13.4, PBLUC_R_SQUARED 0.376, read-out: LUCIFERASE INFECTION ASSAY - IC50): 6.51 µM"
CCC(C)NC(=O)c1c(NC(=O)c2ccccc2)nc2ccc(C)cn12 (configuration not stated),> 9.42,"IC50 (PBLUC_HILL_SLOPE 13.5, PBLUC_R_SQUARED 0.225, read-out: LUCIFERASE INFECTION ASSAY - IC50): 8.13 µM"
Cc1cc(C)cc(C(O)c2nc(-c3cccc4ccccc34)c[nH]2)c1 (configuration not stated),> 10,"IC50 (PBLUC_HILL_SLOPE 13.8, PBLUC_R_SQUARED 0.489, read-out: LUCIFERASE INFECTION ASSAY - IC50): 9.47 µM"
Cc1cc(NC(=O)c2ccc(C)c(C)c2)n(-c2nc3ccccc3[nH]2)n1,> 9.55,"IC50 (PBLUC_HILL_SLOPE 14, PBLUC_R_SQUARED 0.327, read-out: LUCIFERASE INFECTION ASSAY - IC50): 8.17 µM"
N#CC(C#N)=NNc1cc(F)c(Br)cc1F,4.79,"IC50 (PBLUC_HILL_SLOPE 13.7, PBLUC_R_SQUARED 0.287, read-out: LUCIFERASE INFECTION ASSAY - IC50): 4.08 µM"
COc1cc(OC)cc(C(=O)Nc2nc3ccccn3c2C(=O)NC2CCCC2)c1,3.15,"IC50 (PBLUC_HILL_SLOPE 13.4, PBLUC_R_SQUARED 0.275, read-out: LUCIFERASE INFECTION ASSAY - IC50): 2.68 µM"
O=C(NCCSCc1ccc(Cl)cc1Cl)c1ccc(Cl)cc1,> 8.81,"IC50 (PBLUC_HILL_SLOPE 13.4, PBLUC_R_SQUARED 0.244, read-out: LUCIFERASE INFECTION ASSAY - IC50): 7.79 µM"

Structure (SMILES),IC90 [µM],other results
CN(CC(=O)Nc1ccc(Cl)c(S(=O)(=O)N2CCCCC2)c1)C1CCc2ccccc21 (configuration not stated),> 10,"IC50 (PBLUC_HILL_SLOPE 13.6, PBLUC_R_SQUARED 0.21, read-out: LUCIFERASE INFECTION ASSAY - IC50): 9.96 µM"
O=S(=O)(NCC(Sc1nnc(Nc2ccccc2)s1)c1ccccc1)c1ccc(Cl)cc1 (configuration not stated),> 10,"IC50 (PBLUC_HILL_SLOPE 13.6, PBLUC_R_SQUARED 0.626, read-out: LUCIFERASE INFECTION ASSAY - IC50): 9.35 µM"
CN(CCCc1[nH]nc(N)c1C#N)c1nc(-c2ccccn2)nc2sc(-c3ccccc3)cc12,> 10,"IC50 (PBLUC_HILL_SLOPE 13.8, PBLUC_R_SQUARED 0.648, read-out: LUCIFERASE INFECTION ASSAY - IC50): 8.54 µM"
O=C(Nc1cccc(/C=C/c2ccc3cccc(O)c3n2)c1)C(F)(F)F,> 10,"IC50 (PBLUC_HILL_SLOPE 13.5, PBLUC_R_SQUARED 0.34, read-out: LUCIFERASE INFECTION ASSAY - IC50): 8.84 µM"
COc1cc(-c2cc(-c3ccccc3)cnc2N)ccc1O,4.45,"IC50 (PBLUC_HILL_SLOPE 13.8, PBLUC_R_SQUARED 0.558, read-out: LUCIFERASE INFECTION ASSAY - IC50): 3.8 µM"
CCC(C)(C)C1CCC2(CC1)NC(N)=Nc1nc3ccccc3n12 (configuration not stated),3.31,"IC50 (PBLUC_HILL_SLOPE 13.4, PBLUC_R_SQUARED 0.322, read-out: LUCIFERASE INFECTION ASSAY - IC50): 2.81 µM"
CCCc1c(Cc2c(F)cccc2Cl)c(=O)oc2cc(OC(=O)COC)ccc12,3.31,"IC50 (PBLUC_HILL_SLOPE 13.6, PBLUC_R_SQUARED 0.599, read-out: LUCIFERASE INFECTION ASSAY - IC50): 2.82 µM"
CN(C)C(=O)CNC(=O)c1cc(-c2ccccc2)nc2c1cnn2Cc1ccccc1Cl,> 10,"IC50 (PBLUC_HILL_SLOPE 13.5, PBLUC_R_SQUARED 0.27, read-out: LUCIFERASE INFECTION ASSAY - IC50): 8.61 µM"
COc1ccc(C(N)c2csc(NC(=O)Nc3ccccc3C(C)C)n2)cc1 (configuration not stated),3.02,"IC50 (PBLUC_HILL_SLOPE 13.4, PBLUC_R_SQUARED 0.332, read-out: LUCIFERASE INFECTION ASSAY - IC50): 2.57 µM"
COc1ccccc1C(=O)Nc1nonc1-c1ccc2c(c1)CCCC2,> 9.45,"IC50 (PBLUC_HILL_SLOPE 13.6, PBLUC_R_SQUARED 0.311, read-out: LUCIFERASE INFECTION ASSAY - IC50): 9.15 µM"
OC(COc1ccccc1F)CN1CCN(Cc2csc3ccccc23)CC1 (configuration not stated),> 10,"IC50 (PBLUC_HILL_SLOPE 13.5, PBLUC_R_SQUARED 0.264, read-out: LUCIFERASE INFECTION ASSAY - IC50): > 10 µM"
O=C(c1cccs1)N1CCN(c2cc(C(F)(F)F)nc3ccccc23)CC1,3.33,"IC50 (PBLUC_HILL_SLOPE 13.8, PBLUC_R_SQUARED 0.566, read-out: LUCIFERASE INFECTION ASSAY - IC50): 2.84 µM"
O=C(NC1CC1)c1ccc(CN(C(=O)Nc2cccc3ccccc23)C2CC2)cc1,4.41,"IC50 (PBLUC_HILL_SLOPE 14, PBLUC_R_SQUARED 0.411, read-out: LUCIFERASE INFECTION ASSAY - IC50): 3.77 µM"
CC(C)Sc1nnc(CSc2nc3ccccc3s2)n1C,3.94,"IC50 (PBLUC_HILL_SLOPE 13.4, PBLUC_R_SQUARED 0.563, read-out: LUCIFERASE INFECTION ASSAY - IC50): 3.35 µM"
CN1CCN(S(=O)(=O)c2ccc(N3CCC(c4nc5ccccc5s4)CC3)nc2)CC1,> 10,"IC50 (PBLUC_HILL_SLOPE 13.7, PBLUC_R_SQUARED 0.493, read-out: LUCIFERASE INFECTION ASSAY - IC50): 9.47 µM"
CC(Nc1ccc2c(c1)Cc1ccccc1-2)C(=O)N1CCCC1 (configuration not stated),> 10,"IC50 (PBLUC_HILL_SLOPE 13.8, PBLUC_R_SQUARED 0.568, read-out: LUCIFERASE INFECTION ASSAY - IC50): 8.56 µM"
COc1ccccc1-c1nc2c3c(C)c(C)n(CCCO)c3ncn2n1,> 9.39,"IC50 (PBLUC_HILL_SLOPE 14, PBLUC_R_SQUARED 0.452, read-out: LUCIFERASE INFECTION ASSAY - IC50): 8.69 µM"
COc1ccc(S(=O)(=O)N2CCc3ccccc32)cc1C(=O)Oc1c(Cl)cc(Cl)c2ccc(C)nc12,> 10,"IC50 (PBLUC_HILL_SLOPE 13.5, PBLUC_R_SQUARED 0.253, read-out: LUCIFERASE INFECTION ASSAY - IC50): > 10 µM"
Cc1ccc2c(c1)C1CN(C)CCC1N2C(=O)c1sc2ccccc2c1Cl (configuration not stated),6.62,"IC50 (PBLUC_HILL_SLOPE 14.0, 2.64, PBLUC_R_SQUARED 0.410, 0.165, read-out: LUCIFERASE INFECTION ASSAY - IC50): 3.64 µM"
O=C1C=CC(=O)N1c1cccc(Br)c1,> 13.1,"IC50 (PBLUC_HILL_SLOPE 13.6, PBLUC_R_SQUARED 0.314, read-out: LUCIFERASE INFECTION ASSAY - IC50): 12.9 µM"
